Here are results for 19 compounds from PubChem BioAssay AID328 (DTP/NCI, 2004).

SMILES strings stand for the structures. Where “and” joins values, the source holds several entries; their conditions need not be identical. Equal entries are not always repeated. Inconclusive results and toxic doses are left out.

The subject of the experiment is BDF1 mice, P388 leukemia ip, median survival T/C. Briefly: NCI In Vivo Anticancer Drug Screen. Data for tumor model P388 Leukemia (intraperitoneal) in B6D2F1 (BDF1) mice. The conditions noted are these: endpoint: median survival time, higher = longer survival. How it is done: The antitumor activity of compounds was measured in mice bearing transplantable tumors. Survival or tumor size were measured and the results are expressed as the measurement made in the treated group (T) divided by the measurement made in the vehicle treated control group (C). The tumor model used in this assay is P388 Leukemia (intraperitoneal) in B6D2F1 (BDF1) mice

Setting [1] is: dose: 100.0 mg/kg/injection, schedule: Q01DX001 (ip), vehicle: saline with Tween-80.
The mark [2] stands for this setting: dose: 100.0 mg/kg/injection, schedule: Q01DX009 (ip), vehicle: saline with Tween-80.
Where [3] appears, read: dose: 200.0 mg/kg/injection, schedule: Q01DX009 (ip), vehicle: saline with Tween-80.
[4] abbreviates: dose: 100.0 mg/kg/injection, schedule: Q04DX003 (ip), vehicle: saline.
Where [5] appears, read: dose: 200.0 mg/kg/injection, schedule: Q04DX003 (ip), vehicle: saline.
The mark [6] stands for this setting: dose: 400.0 mg/kg/injection, schedule: Q04DX003 (ip), vehicle: saline.

As for `O=C(NNC1CCN(Cc2ccccc2)CC1)c1ccccc1`, the T/C runs as follows: (dose: 1.1 mg/kg/injection, schedule: Q04DX003 (ip), vehicle: saline with Tween-80) 100 % of control; (dose: 1.65 mg/kg/injection, schedule: Q04DX003 (ip), vehicle: saline with Tween-80) 100 % of control; (dose: 2.5 mg/kg/injection, schedule: Q04DX003 (ip), vehicle: saline with Tween-80) 100 % of control; (dose: 3.75 mg/kg/injection, schedule: Q04DX003 (ip), vehicle: saline with Tween-80) 100 % of control; (dose: 5.0 mg/kg/injection, schedule: Q04DX003 (ip), vehicle: saline with Tween-80) 104 % of control; (dose: 10.0 mg/kg/injection, schedule: Q04DX003 (ip), vehicle: saline with Tween-80) 104 % of control.
Turning to `CC1(C)C(N2CCOCC2)C(c2ccccc2)S1(=O)=O` (stereo not given), the T/C was 100 % of control under setting [1] and 95 % of control (dose: 400.0 mg/kg/injection, schedule: Q01DX001 (ip), vehicle: saline with Tween-80).
`CN1CCC2=C(C1)C(N1CCCCC1)CS(=O)(=O)O2` (stereo not given): the T/C is, setting by setting: (dose: 25.0 mg/kg/injection, schedule: Q04DX002 (ip), vehicle: saline) 93 % of control; (dose: 50.0 mg/kg/injection, schedule: Q04DX002 (ip), vehicle: saline) 97 % of control; (dose: 100.0 mg/kg/injection, schedule: Q04DX002 (ip), vehicle: saline with Tween-80) 93 % of control.
As to `c1ccc(COC2CN3CCC2CC3)cc1` (stereo not given), the T/C was 122 % of control (dose: 25.0 mg/kg/injection, schedule: Q04DX003 (ip), vehicle: saline with Tween-80) and 100 % of control (dose: 50.0 mg/kg/injection, schedule: Q04DX003 (ip), vehicle: saline with Tween-80).
`O=c1[nH]c2ccc(Br)cc2c(=O)o1`: the T/C is 104 % of control (dose: 25.0 mg/kg/injection, schedule: Q01DX001 (ip), vehicle: Klucel (hydroxypropylcellulose) (HPC)); 109 % of control (dose: 35.0 mg/kg/injection, schedule: Q01DX001 (ip), vehicle: Klucel (hydroxypropylcellulose) (HPC)); 104 % of control (dose: 50.0 mg/kg/injection, schedule: Q01DX001 (ip), vehicle: Klucel (hydroxypropylcellulose) (HPC)); 95 % of control (dose: 75.0 mg/kg/injection, schedule: Q01DX001 (ip), vehicle: Klucel (hydroxypropylcellulose) (HPC)); 150 % of control under setting [2]; 92 % of control (dose: 250.0 mg/kg/injection, schedule: Q01DX001 (ip), vehicle: Klucel (hydroxypropylcellulose) (HPC)). Further, for the setting “dose: 400.0 mg/kg/injection, schedule: Q01DX001 (ip), vehicle: Klucel (hydroxypropylcellulose) (HPC)”, the T/C was 88 % of control.
Take `CCCCCC[C@@H](O)[C@@H]1C2=C(C[C@H]([C@H](O)[C@@H]3CC=CC(=O)O3)CC3=C(C(=O)OC3=O)[C@@H]1O)C(=O)OC2=O`: the T/C runs as follows: (dose: 0.12 mg/kg/injection, schedule: Q01DX009 (ip), vehicle: saline) 107 % of control; (dose: 0.25 mg/kg/injection, schedule: Q01DX009 (ip), vehicle: saline) 109 % of control; (dose: 0.5 mg/kg/injection, schedule: Q01DX009 (ip), vehicle: saline) 107 % of control; (dose: 1.0 mg/kg/injection, schedule: Q01DX009 (ip), vehicle: saline) 119 % of control.
Consider `CCCCCCCS(=O)CCCCCCC`, for which the T/C was 102 % of control (dose: 6.25 mg/kg/injection, schedule: Q01DX009 (ip), vehicle: saline with Tween-80); 104 % of control (dose: 12.5 mg/kg/injection, schedule: Q01DX009 (ip), vehicle: saline with Tween-80); 95 % of control (dose: 25.0 mg/kg/injection, schedule: Q01DX009 (ip), vehicle: saline with Tween-80); 104 % of control (dose: 50.0 mg/kg/injection, schedule: Q01DX009 (ip), vehicle: saline with Tween-80).
For the compound `BrC1c2cccc3cccc(c23)C1Br` (stereo not given), the T/C runs as follows: under setting [2], 150 % of control; under setting [3], 88 % of control.
With `OC(CBr)C(O)C(O)C(O)CBr` (stereo not given), the T/C (dose: 50.0 mg/kg/injection, schedule: Q01DX009 (ip), vehicle: Klucel (hydroxypropylcellulose) (HPC)) was 105 % of control; the T/C (dose: 62.5 mg/kg/injection, schedule: Q01DX010 (ip), vehicle: saline) is 104 % of control; the T/C (dose: 125.0 mg/kg/injection, schedule: Q01DX001 (ip), vehicle: carboxymethylcellulose (CMC)) was 120 % of control; the T/C (dose: 125.0 mg/kg/injection, schedule: Q01DX010 (ip), vehicle: carboxymethylcellulose (CMC)) is 105 % of control; the T/C (dose: 125.0 mg/kg/injection, schedule: Q01DX010 (ip), vehicle: saline) was 108 % of control; the T/C (dose: 250.0 mg/kg/injection, schedule: Q01DX010 (ip), vehicle: carboxymethylcellulose (CMC)) was 110 % of control. Moreover, the T/C is 91 % of control (dose: 250.0 mg/kg/injection, schedule: Q01DX010 (ip), vehicle: saline); 87 % of control (dose: 400.0 mg/kg/injection, schedule: Q01DX009 (ip), vehicle: Klucel (hydroxypropylcellulose) (HPC)); 170 % of control (dose: 1000.0 mg/kg/injection, schedule: Q01DX001 (ip), vehicle: carboxymethylcellulose (CMC)).
Take `CCN1C=C/C(=C/c2cc3scc(-c4ccccc4)[n+]3c3ccccc23)c2ccccc21`: the T/C is, setting by setting: (dose: 0.08 mg/kg/injection, schedule: Q01DX009 (ip), vehicle: saline) 100 % of control; (dose: 0.16 mg/kg/injection, schedule: Q01DX009 (ip), vehicle: saline) 108 % of control; (dose: 0.32 mg/kg/injection, schedule: Q01DX009 (ip), vehicle: saline) 120 % of control.
As for `CC(C)(C)C(=O)CC(O)(C(F)(F)Cl)C(F)(F)Cl`, the T/C reads like this: under setting [2], 100 % of control; under setting [3], 100 % of control.
On to `CC(O)c1nc(N)nc(N)c1-c1ccc(Cl)cc1` (stereo not given), for which the T/C by setting is: under setting [1], 106 % of control; (dose: 200.0 mg/kg/injection, schedule: Q01DX001 (ip), vehicle: saline with Tween-80) 100 % of control.
With `O=c1c2ccccc2c2nc3ccc4c(=O)c5ccccc5c5nc6ccc1c2c6c3c45`, the T/C by setting is: (dose: 50.0 mg/kg/injection, schedule: Q01DX005 (ip), vehicle: saline with Tween-80) 100 % of control; (dose: 100.0 mg/kg/injection, schedule: Q01DX005 (ip), vehicle: saline with Tween-80) 100 % of control.
As to `CCCCCCC(=O)/C=C/c1ccc(Cl)c(Cl)c1`, the T/C by setting is: (dose: 75.0 mg/kg/injection, schedule: Q01DX009 (ip), vehicle: saline with Tween-80) 106 % of control; (dose: 150.0 mg/kg/injection, schedule: Q01DX009 (ip), vehicle: saline with Tween-80) 98 % of control; (dose: 300.0 mg/kg/injection, schedule: Q01DX009 (ip), vehicle: saline with Tween-80) 93 % of control.
Take `C[N+](C)(CC(=O)Nc1ccc(Cl)cc1)CC(=O)c1ccc(Cl)c(Cl)c1`: the T/C was 104 % of control (dose: 100.0 mg/kg/injection, schedule: Q01DX001 (ip), vehicle: saline sonified); 95 % of control (dose: 200.0 mg/kg/injection, schedule: Q01DX001 (ip), vehicle: saline sonified); 100 % of control (dose: 400.0 mg/kg/injection, schedule: Q01DX001 (ip), vehicle: saline sonified).
For `O=C(Nc1ccc(S(=O)(=O)Nc2ccc(N=Nc3ccccc3)cc2)cc1)C(SC1=NC=NC2=NC=NC21)SC1=NC=NC2=NC=NC21` (stereo not given), the T/C under setting [4] was 95 % of control, the T/C under setting [5] was 105 % of control and the T/C under setting [6] was 115 % of control.
Turning to `CC(=O)Nc1c(Cl)cc2c(c1Cl)Cc1cc([N+](=O)[O-])ccc1-2`, the T/C is 95 % of control under setting [2]; 92 % of control and 95 % of control (dose: 100.0 mg/kg/injection, schedule: Q04DX003 (ip), vehicle: saline with Tween-80); 95 % of control under setting [3]; 92 % of control and 95 % of control (dose: 200.0 mg/kg/injection, schedule: Q04DX003 (ip), vehicle: saline with Tween-80); 100 % of control (dose: 400.0 mg/kg/injection, schedule: Q01DX009 (ip), vehicle: saline with Tween-80); 91 % of control (dose: 400.0 mg/kg/injection, schedule: Q04DX003 (ip), vehicle: saline with Tween-80).
In the case of `Cc1ccc(NCc2cccc3ccccc23)c(C)c1`, the T/C under setting [4] was 91 % of control, the T/C under setting [5] was 100 % of control and the T/C under setting [6] was 95 % of control.
For the compound `CC1=CC(c2ccc3c(c2)OCO3)c2c(c3ccccc3oc2=O)O1` (stereo not given), the T/C (dose: 12.5 mg/kg/injection, schedule: Q01DX009 (ip), vehicle: water) is 107 % of control; the T/C (dose: 100.0 mg/kg/injection, schedule: Q04DX003 (ip), vehicle: water) is 104 % of control; the T/C (dose: 200.0 mg/kg/injection, schedule: Q04DX003 (ip), vehicle: water) is 98 % of control; the T/C (dose: 400.0 mg/kg/injection, schedule: Q04DX003 (ip), vehicle: water) is 90 % of control.
